According to patent US9107830B2, “Inhibitors of crystallization in a solid dispersion” (ABBVIE, INC., priority 1999, dated 2015):
“Also recorded” adds a separate entry of the source.

Key:
[1] = XPD monitoring for crystalline drug in samples held at 50° C.; type: physicochemical
Protocol: An X-ray powder diffraction (XPD) pattern was obtained with a Scintag® XDS 2000 θ/θ diffraction system equipped with a 2 kW normal focus X-ray tube and a liquid nitrogen cooled germanium solid state detector. An additional study was performed with a dispersion containing 15% PVP. The samples were held at 50° C. (above the Tg of ABT-538) and X-ray diffraction patterns were measured over time to monitor for the appearance of crystalline ABT-538.

[2] = Isothermal calorimetry (TAM) of recrystallization at 40° C.; type: physicochemical
Protocol: The recrystallization reactions of 30% ABT-538 in PEG or PEG:PVP (95:5) solid dispersions were monitored via isothermal calorimetry (Thermometric 2277 Calorimeter) at 40° C. Since crystallization is an exothermic process, a positive power output indicates crystallization. The magnitude of the power output at any time is proportional to the rate of crystallization. XPD was used to confirm crystallization.
The crystallization rate was also followed via the heat associated with crystallization of ABT-538 using a isothermal calorimetry. The shapes and magnitudes of the crystallization peaks in FIG. 6 indicate that ABT-538 crystallizes more readily in the PEG matrix as compared to the PEG:PVP matrix. This stabilizing effect of PVP is also reflected in the times required for complete crystallization (time to reach baseline) which were <10 hours for PEG and >30 hours for PEG:PVP (95:5).

[3] = DSC crystallization kinetics, isothermal hold at 85° C.; type: physicochemical; settings: PVP in matrix versus PEG
Protocol: DSC measurements were made using a Mettler DSC 30 unit. Samples (4-7 mg) were sealed in standard 40 μl aluminum crucibles with a single hole punched in the lids. An empty crucible of the same type was used as a reference.
A similar plot is shown in FIG. 2 with PVP incorporated into the matrix. […] A similar plot is seen in FIG. 4 for the PEG:PVP dispersion. The endotherm associated with drug melting can clearly be discerned from the other components. Thus, it is possible to follow the kinetics of ABT-538 crystallization via DSC measurements. Crystallization kinetics were determined by heating the samples to 85° C., holding them isothermally for predetermined times followed by heating through the melting transition temperature of ABT-538. The heats of fusion were determined and ratioed against the heat of fusion of the drug melting in the physical mixture, giving the fraction crystallized.

[4] = X-ray powder diffraction of freshly prepared solid dispersions (physical form of drug in matrix); type: physicochemical
Protocol: (§1) An X-ray powder diffraction (XPD) pattern was obtained with a Scintag® XDS 2000 θ/θ diffraction system equipped with a 2 kW normal focus X-ray tube and a liquid nitrogen cooled germanium solid state detector.
The samples were prepared by dissolving ABT-538 in a small volume of 200 proof ethanol in a 250 ml round bottom flask. The flask was vortexed and then placed in a water bath maintained at 75° C. The PEG 8000 was added to the hot alcohol solution with continual swirling until the PEG melted. The flask was then attached to a rotary evaporator, immersed in the water bath (75° C.) under vacuum for 15 minutes to remove the ethanol. After the majority of ethanol had evaporated, the flask was immersed in an ice bath for 15 minutes. The contents of the flask were then vacuum dried at room temperature overnight to remove residual alcohol. The dispersion was removed from the flask, gently ground, and sized to 40-100 mesh size. The drug loads used for these dispersions were 10, 20 and 30% w/w.
The solid dispersion of 30% ABT-538 in 95:5 PEG8000:PVP was prepared by dissolving the ABT-538 and PVP 17 PF in a small volume of 200 proof ethanol in a 250 ml round bottom flask. The remainder of the process was as described above. A 30% ABT-538 dispersion in 85:15 PEG8000:PVP was also prepared similarly as were dispersions of 10 or 20% PVP 17 PF in PEG 8000 without drug.
(§2) Both fenofibrate and PEG 8000 were sized to 40-100 mesh prior to mixing with a spatula on weighing paper. The mixture was then added to a 25 ml beaker and heated to 85° C. in a water bath until the all the material had melted. The molten solution was then poured onto a chilled X-ray sample holder to rapidly solidify the solution. The solid sample was immediately used to monitor the crystallization rate via X-ray powder diffraction.
Fenofibrate (40-100 mesh) was added to the 90:10 PEG 8000:PVP control dispersion (see above) which was also sized to 40-100 mesh and mixed with spatula on a piece of weighing paper. The mixture was then processed as described above for the 15% fenofibrate dispersion in PEG 8000.
Both griseofulvin and PEG 8000 were sized to 40-100 mesh prior to mixing on a weighing paper with a spatula. The sample was then added to an 4 ml stainless steel vessel which was sealed under a N2 atmosphere. The vessel was then immersed into an oil bath maintained at 180° C. […]
A similar plot is shown in FIG. 2 with PVP incorporated into the matrix. […] Crystallization kinetics were determined by heating the samples to 85° C., holding them isothermally for predetermined times followed by heating through the melting transition temperature of ABT-538. The heats of fusion were determined and ratioed against the heat of fusion of the drug melting in the physical mixture, giving the fraction crystallized. […]

[5] = Aungst et al., Int. J. Pharm. 156, 79 (1997); cited from earlier work
[6] = XPD rate of crystallization upon storage at 25° C.; type: physicochemical
Protocol: as §1, §2
The figure illustrates that the fenofibrate is X-ray-amorphous within the matrix. Again, the fenofibrate is amorphous. Upon storage at 25° C., the fenofibrate begins to crystallize in the PEG 8000 matrix within 1 hour (FIG. 10). Additional crystallization follows up to 12 hours, when the experiment was terminated.
Similar XPD patterns for the griseofulvin dispersion in PEG 8000 and 80:20 PEG 8000:PVP matrices are shown in FIGS. 12 and 13, respectively. In both instances, amorphous griseofulvin is isolated within the respective matrices. […] However, in the presence of PVP (FIG. 15), crystallization is not observed even after 15 hours under the same conditions.

[7] = PEG 8000:PVP matrix, 30% ABT-538, 15% fenofibrate (90:10) or 15% griseofulvin (80:20)
[8] = PEG 8000 matrix, 30% ABT-538, 15% fenofibrate or 15% griseofulvin

## CC(C)c1nc(CN(C)C(=O)NC(C(=O)NC(Cc2ccccc2)CC(O)C(Cc2ccccc2)NC(=O)OCc2cncs2)C(C)C)cs1 [ABT-538, (2S,3S,5S)-5-(N—(N—((N-methyl-N-((2-isopropyl-4-thiazolyl)-methyl)amino)carbonyl)-L-valinyl)amino-2-(N-((5-thiazolyl)methoxy-carbonyl)-amino)-1,6-diphenyl-3-hydroxyhexane]
[1]; PEG8000 alone, detected at this time and before
  time at which crystalline drug is detected (XPD): ≤ 233 h
[1]; dispersion containing 15% PVP
  time held without crystalline ABT-538 present (XPD): > 272 h
[2]; 30% ABT-538 in PEG solid dispersion
  time required for complete crystallization (time to reach baseline): < 10 h
[2]; 30% ABT-538 in PEG:PVP (95:5) solid dispersion
  time required for complete crystallization (time to reach baseline): > 30 h
[3]
  effect of PVP within the matrix on crystallization rate (percent crystallized from heat of fusion): suppresses the crystallization rate
[3]; listed as ritonavir
  effect of PVP within the matrix on crystallization rate (percent crystallized from heat of fusion): slower
[4]; [7]
  physical form of drug in the solid dispersion by XPD: Amorphous; also recorded: not crystalline
[4]; [8]
  physical form of drug in the solid dispersion by XPD: Amorphous; also recorded: not crystalline

## O=C1N(Cc2ccc(CO)cc2)[C@H](Cc2ccccc2)[C@H](O)[C@@H](O)[C@@H](Cc2ccccc2)N1Cc1ccc(CO)cc1 [DMP 323]
[5]
  effect of PEG solid dispersion formulation on bioavailability: unable to improve the bioavailability

## COC1=CC(=O)C[C@@H](C)[C@]12Oc1c(Cl)c(OC)cc(OC)c1C2=O [griseofulvin]
[6]; 15% drug in PEG 8000 matrix, storage at 25° C.
  time at which drug begins to crystallize (XPD): one
[6]; 15% griseofulvin in 80:20 PEG 8000:PVP, 25° C.
  time without crystallization observed (XPD): > 15 h
[4]; [7]
  physical form of drug in the solid dispersion by XPD: amorphous
[4]; [8]
  physical form of drug in the solid dispersion by XPD: amorphous
